This note sets out measurements from ChEMBL document CHEMBL1201862, “PubChem BioAssay data set” (2004).

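Following 48 hours of exposure in 96-well plates, responses at five concentrations were used to interpolate endpoints linearly. The concentration for 50% growth inhibition is given as GI50.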 Calls of active or inactive are those of the source. Cut-off read from the data, not from the text of the source: active = GI50 up to about 1.1 µM and inactive = higher. Bounds are passed on as bounds.

Test systems include HT-29; COLO 205; SN12C; 786-0; UACC-62; A549; HCT-15; NCI-H23; SW-620; OVCAR-4; NCI-H522; OVCAR-8; HOP-92; IGROV-1; MOLT-4; SF-539; UO-31; PC-3; T47D.
Holding throughout (test): NCI anticancer screen, dose series, 48 h

`[N-]=[N+]=NC1(Cc2ccccc2)C(=O)c2cccc3c2N(CCC3)C1=O` (stereo not drawn): the GI50 in the test on HT-29, with COLO 205, with SN12C, in the test with 786-0, with UACC-62 and in the test with A549 was > 100 µM (inactive) in each case. Besides, the GI50 was over 100 µM in the test on HCT-15; > 100 µM (inactive) in the test on NCI-H23; > 100 µM (inactive) with SW-620; > 100 µM (inactive) in the test with OVCAR-4; > 100 µM (inactive) in the test on NCI-H522; > 100 µM (inactive) in the test with OVCAR-8. Further, the GI50 with HOP-92, with IGROV-1, in the test with MOLT-4, with SF-539 and in the test with UO-31 was > 100 µM (inactive) throughout.
With `O=C1c2c(c3c4ccccc4n4c3c3c2c2ccccc2n3C/C=C\C4)C(=O)N1Cc1ccccc1`, the GI50 in the test with HT-29, with COLO 205, in the test on SN12C, in the test on 786-0, in the test on UACC-62 and with A549 was > 100 µM (inactive) in each case. Further, the GI50 with HCT-15 was over 100 µM; in the test on NCI-H23 it was > 100 µM (inactive); with SW-620 it was > 100 µM (inactive); in the test with NCI-H522 it was > 100 µM (inactive); in the test with OVCAR-8, > 100 µM (inactive); in the test with IGROV-1, > 100 µM (inactive). The GI50 in the test on MOLT-4, with SF-539 and in the test on UO-31 was > 100 µM (inactive) in each case.
Take `Clc1c(Cl)c(Cl)c2c(nnn2C2CCCO2)c1Cl` (stereo not drawn): the GI50 in the test on HT-29 was 33.6 µM (inactive); in the test on COLO 205, 24.2 µM (inactive); in the test with SN12C it was 40.7 µM (inactive); in the test on 786-0 it was 45.8 µM (inactive); in the test on UACC-62, 44.4 µM (inactive); in the test with A549, 24.7 µM (inactive). The GI50 with HCT-15 was 28.4 µM; in the test with NCI-H23, 19.6 µM (inactive); in the test on OVCAR-4, 18.9 µM (inactive); with NCI-H522 it was 23.8 µM (inactive); with OVCAR-8, 29.3 µM (inactive); in the test with IGROV-1, 34.4 µM (inactive). In addition, the GI50 was 23.2 µM (inactive) with MOLT-4, 39.2 µM (inactive) in the test with PC-3, 30.7 µM (inactive) in the test on SF-539 and 50.9 µM (inactive) in the test on T47D.
Turning to `COc1ccc(N2C(=O)C3c4[nH]c5ccc(C)cc5c4C4CCC(C)CC4C3C2=O)cc1` (stereo not drawn), the GI50 with HT-29 is > 100 µM (inactive); with COLO 205, > 100 µM (inactive); in the test with SN12C, > 100 µM (inactive); in the test with 786-0, 25.7 µM (inactive); with UACC-62, 52.7 µM (inactive); with A549, > 100 µM (inactive). For the same molecule, the GI50 with HCT-15 was over 100 µM; with NCI-H23, 59 µM (inactive); with SW-620, > 100 µM (inactive); with NCI-H522, 92 µM (inactive); with OVCAR-8, > 100 µM (inactive); in the test on HOP-92 it was 76.2 µM (inactive). For the same molecule, the GI50 in the test with IGROV-1 was > 100 µM (inactive); with MOLT-4, 67.5 µM (inactive); with PC-3, > 100 µM (inactive); in the test with SF-539 it was 17.7 µM (inactive); with UO-31, > 100 µM (inactive).
Consider `Cc1ccc(C(=O)Nc2ccc(CP(=O)(O)O)cc2CP(=O)(O)O)cc1NC(=O)Nc1cc(C(=O)Nc2ccc(CP(=O)(O)O)cc2CP(=O)(O)O)ccc1C`, for which the GI50 with HT-29, in the test on COLO 205, with SN12C, with 786-0, with UACC-62 and in the test on A549 was > 100 µM (inactive) throughout. For the same molecule, the GI50 was over 100 µM in the test on HCT-15; > 100 µM (inactive) in the test with NCI-H23; > 100 µM (inactive) in the test on SW-620; > 100 µM (inactive) with OVCAR-4; 64.9 µM (inactive) in the test on NCI-H522; > 100 µM (inactive) in the test with OVCAR-8. For the same molecule, the GI50 in the test with IGROV-1, in the test on PC-3, with SF-539, in the test with UO-31 and with T47D was > 100 µM (inactive) in each case.
With `CC12CCC(=O)[C@@]1(C)CCCC2=O` (stereo partly drawn), the GI50 in the test with HT-29, with COLO 205, in the test with SN12C, in the test on 786-0, in the test with UACC-62 and with A549 was > 100 µM (inactive) in each case. In addition, the GI50 with HCT-15 is over 100 µM; in the test with NCI-H23, > 100 µM (inactive); in the test with SW-620, > 100 µM (inactive); with OVCAR-4, > 100 µM (inactive); in the test on NCI-H522 it was > 100 µM (inactive); in the test with OVCAR-8, > 100 µM (inactive). Also, the GI50 in the test on IGROV-1, with MOLT-4, in the test on PC-3, in the test on SF-539, with UO-31 and in the test with T47D was > 100 µM (inactive) in each case.
On to `COc1ccc(C(=O)C(C(=O)CCC(=O)Nc2cccc(Cl)c2)c2ccc(OC)cc2)cc1` (stereo not drawn), for which the GI50 in the test with HT-29, with COLO 205, with SN12C, in the test with 786-0, in the test with UACC-62 and in the test with A549 was > 100 µM (inactive) throughout. Further, the GI50 with HCT-15 is over 100 µM; in the test on NCI-H23, > 100 µM (inactive); in the test on SW-620, > 100 µM (inactive); in the test with OVCAR-4 it was > 100 µM (inactive); in the test on NCI-H522 it was > 100 µM (inactive); in the test with OVCAR-8, > 100 µM (inactive). Besides, the GI50 with HOP-92, in the test on IGROV-1, with MOLT-4, in the test with SF-539 and in the test with UO-31 was > 100 µM (inactive) throughout.
In the case of `CN(C)c1ccc(/C=C2\C[C@H]3[C@@H]4CC=C5C[C@@H](O)CC[C@]5(C)[C@H]4CC[C@]3(C)C2=O)cc1`, the GI50 with HT-29 was 16.3 µM (inactive); in the test on COLO 205, 23.7 µM (inactive); in the test with SN12C, 20.9 µM (inactive); in the test with 786-0, 16.3 µM (inactive); with UACC-62 it was 17.4 µM (inactive); with A549, 19.9 µM (inactive). The GI50 with HCT-15 was 34.5 µM; with NCI-H23 it was 25.6 µM (inactive); in the test with SW-620, 30.2 µM (inactive); with OVCAR-4, 18.1 µM (inactive); in the test on OVCAR-8, 4.88 µM (inactive); in the test with IGROV-1, 18 µM (inactive). Further, the GI50 in the test on MOLT-4 was 79.3 µM (inactive); in the test on PC-3 it was 13.4 µM (inactive); with SF-539, 9.2 µM (inactive); with UO-31, 4.55 µM (inactive); in the test on T47D, 20.3 µM (inactive).
Take `CC(=O)Oc1cc(-c2oc3cc(OC(C)=O)c(C4OC(CO)C(O)C(O)C4O)c(OC(C)=O)c3c(=O)c2O)c(OC(C)=O)cc1O` (stereo not drawn): the GI50 in the test with HT-29, in the test on COLO 205, in the test with SN12C, in the test on 786-0, in the test with UACC-62 and in the test on A549 was > 100 µM (inactive) each time. For the same molecule, the GI50 was over 100 µM in the test on HCT-15; > 100 µM (inactive) with NCI-H23; > 100 µM (inactive) with SW-620; > 100 µM (inactive) in the test on OVCAR-4; 72.6 µM (inactive) in the test on NCI-H522; > 100 µM (inactive) with OVCAR-8. For the same molecule, the GI50 with HOP-92 is 26.3 µM (inactive); with IGROV-1, > 100 µM (inactive); in the test with MOLT-4, > 100 µM (inactive); in the test with PC-3, > 100 µM (inactive); in the test on UO-31, > 100 µM (inactive).
As to `CCOC(=O)C1=C(C)NC(c2ccccc2)=C(C(=O)OCc2ccccc2)C1C#Cc1ccccc1` (stereo not drawn), the GI50 with COLO 205 is > 100 µM (inactive); with SN12C, 12.4 µM (inactive); with 786-0 it was > 100 µM (inactive); with UACC-62 it was > 100 µM (inactive); with HCT-15, over 100 µM; in the test on NCI-H23, > 100 µM (inactive). In addition, the GI50 is > 100 µM (inactive) in the test with SW-620; > 100 µM (inactive) in the test on OVCAR-8; 79.8 µM (inactive) in the test with IGROV-1; > 100 µM (inactive) in the test with MOLT-4; > 100 µM (inactive) in the test on PC-3; > 100 µM (inactive) with SF-539. The GI50 with UO-31 was 58.2 µM (inactive); in the test on T47D, > 100 µM (inactive).
As to `Nc1nc(O)c2nc(N)n(Cc3ccccc3)c2n1`, the GI50 in the test with HT-29, in the test with COLO 205, in the test with SN12C, in the test with 786-0, in the test with UACC-62 and with A549 was > 100 µM (inactive) each time. Moreover, the GI50 in the test on HCT-15 was over 100 µM; with NCI-H23 it was > 100 µM (inactive); in the test on SW-620, > 100 µM (inactive); with OVCAR-4, > 100 µM (inactive); with NCI-H522 it was > 100 µM (inactive); with OVCAR-8, > 100 µM (inactive). In addition, the GI50 in the test with HOP-92, in the test on IGROV-1, in the test on MOLT-4 and in the test with UO-31 was > 100 µM (inactive) each time.
For the molecule `Cn1cccc1/C=C/c1cc(Br)c(/C=C/c2cccn2C)cc1Br`, the GI50 in the test with HT-29 is 18.6 µM (inactive); in the test on COLO 205, 13.2 µM (inactive); in the test with SN12C, 21 µM (inactive); in the test on 786-0, 6.12 µM (inactive); in the test with UACC-62, 13.8 µM (inactive); in the test with A549, 11.9 µM (inactive). For the same molecule, the GI50 with HCT-15 was 8.75 µM; in the test with NCI-H23, > 10 µM (inactive); in the test on SW-620 it was 20.9 µM (inactive); with OVCAR-4, 5.4 µM (inactive); in the test with NCI-H522 it was 14.5 µM (inactive); with OVCAR-8, > 10 µM (inactive). Moreover, the GI50 is 11.7 µM (inactive) in the test on HOP-92; 15.8 µM (inactive) with IGROV-1; 11.6 µM (inactive) in the test on MOLT-4; 14.6 µM (inactive) in the test on SF-539; 15.2 µM (inactive) with UO-31.
